In US9199943B2, “2-(poly-substituted aryl)-6-amino-5-halo-4-pyrimidinecarboxylic acids and their use as herbicides” (Dow AgroSciences, LLC., priority 2006, dated 2015):

What was measured:
[1] = system: CHEAL = lambsquarter (Chenopodium album); test: General postemergence herbicidal activity, lambsquarter; assay type: in vivo; conditions: Chenopodium album, post-emergence, 336 h; post-emergent, 140 g ai/ha, visual score after 14 days (0 no injury, 100 complete kill)
Method: (§1) Seeds or nutlets of the desired test plant species were planted in Sun Gro MetroMix® 306 planting mixture, which typically has a pH of 6.0 to 6.8 and an organic matter content of about 30 percent, in plastic pots with a surface area of 64 square centimeters. When required to ensure good germination and healthy plants, a fungicide treatment and/or other chemical or physical treatment was applied. The plants were grown for 7-21 days in a greenhouse with an approximate 15 hour photoperiod which was maintained at about 23-29° C. during the day and 22-28° C. during the night. Nutrients and water were added on a regular basis and supplemental lighting was provided with overhead metal halide 1000-Watt lamps as necessary. The plants were employed for testing when they reached the first or second true leaf stage.
(§2) A weighed amount, determined by the highest rate to be tested, of each test compound was placed in a 25 mL glass vial and was dissolved in 4 mL of a 97:3 v/v (volume/volume) mixture of acetone and dimethyl sulfoxide (DMSO) to obtain concentrated stock solutions. […] The concentrated stock solutions obtained were diluted with 20 mL of an aqueous mixture containing acetone, water, isopropyl alcohol, DMSO, Atplus 411F crop oil concentrate, and Triton X-155 surfactant in a 48.5:39:10:1.5:1.0:0.02 v/v ratio to obtain spray solutions containing the highest application rates. Additional application rates were obtained by serial dilution of 12 mL of the high rate solution into a solution containing 2 mL of 97:3 v/v (volume/volume) mixture of acetone and dimethyl sulfoxide (DMSO) and 10 mL of an aqueous mixture containing acetone, water, isopropyl alcohol, DMSO, Atplus 411F crop oil concentrate, and Triton X-155 surfactant in a 48.5:39:10:1.5:1.0:0.02 v/v ratio to obtain ½×, ¼×, ⅛× and 1/16× rates of the high rate. Compound requirements are based upon a 12 mL application volume at a rate of 187 L/ha. Formulated compounds were applied to the plant material with an overhead Mandel track sprayer equipped with a 8002E nozzles calibrated to deliver 187 L/ha over an application area of 0.503 square meters at a spray height of 18 inches (43 cm) above the average plant canopy height. Control plants were sprayed in the same manner with the solvent blank.
(§3) The treated plants and control plants were placed in a greenhouse as described above and watered by sub-irrigation to prevent wash-off of the test compounds. After 14 days, the condition of the test plants as compared with that of the untreated plants was determined visually and scored on a scale of 0 to 100 percent where 0 corresponds to no injury and 100 corresponds to complete kill.
(§4) By applying the well-accepted probit analysis as described by J. Berkson in Journal of the […], 48, 565 (1953) and by D. Finney in “Probit Analysis” Cambridge University Press (1952), the above data can be used to calculate GR50 and GR80 values, which are defined as growth reduction factors that correspond to the effective dose of herbicide required to kill or control 50 percent or 80 percent, respectively, of a target plant.

[2] = system: HELAN = sunflower (Helianthus annuus); test: General preemergence herbicidal activity, sunflower; assay type: in vivo; conditions: Helianthus annuus, pre-emergence, 480 h; pre-emergent, 280 g ai/ha, visual score after 20-22 days
Source text: (§5) Seeds of the desired test plant species were planted in a soil matrix prepared by mixing a loam soil (43 percent silt, 19 percent clay, and 38 percent sand, with a pH of about 8.1 and an organic matter content of about 1.5 percent) and sand in a 70 to 30 ratio. The soil matrix was contained in plastic pots with a surface area of 113 square centimeters. When required to ensure good germination and healthy plants, a fungicide treatment and/or other chemical or physical treatment was applied. A weighed amount, determined by the highest rate to be tested, of each test compound was placed in a 25 mL glass vial and was dissolved in 6 mL of a 97:3 v/v (volume/volume) mixture of acetone and DMSO to obtain concentrated stock solutions. […] The stock solutions obtained were diluted with 18 mL of a 0.1% v/v aqueous solution of Tween® 20 surfactant to obtain spray solutions containing the highest application rate. Additional application rates were obtained by serial dilution of 12 mL of the high rate solution into a solution containing 3 mL of 97:3 v/v mixture of acetone and DMSO and 9 mL of the 0.1% v/v aqueous solution of Tween® 20 surfactant to obtain 1⁄2×, 1⁄4×, 1⁄8× and 1/16× rates of the high rate. Compound requirements are based upon a 12 mL application volume at a rate of 187 L/ha. Formulated compounds were applied to the plant material with an overhead Mandel track sprayer equipped with a […] nozzles calibrated to deliver 187 L/ha over an application area of 0.503 square meters at a spray height of 18 inches (43 cm) above the soil surface. Control plants were sprayed in the same manner with the solvent blank. The treated pots and control pots were placed in a greenhouse maintained with an approximate 15 hour photoperiod and temperatures of about 23-29° C. during the day and 22-28° C. during the night. Nutrients and water were added on a regular basis and supplemental lighting was provided with overhead metal halide 1000-Watt lamps as necessary. The water was added by top-irrigation. After 20-22 days, the condition of the test plants that germinated and grew as compared with that of the untreated plants that emerged and grew was determined visually and scored on a scale of 0 to 100 percent where 0 corresponds to no injury and 100 corresponds to complete kill or no emergence.

[3] = system: CHEAL = lambsquarter (Chenopodium album); test: General preemergence herbicidal activity, lambsquarter; assay type: in vivo; conditions: Chenopodium album, pre-emergence, 480 h; pre-emergent, 280 g ai/ha, visual score after 20-22 days
Source text: as §5

[4] = system: ABUTH = velvetleaf (Abutilon theophrasti); test: General postemergence herbicidal activity, velvetleaf; assay type: in vivo; conditions: Abutilon theophrasti, post-emergence, 336 h; post-emergent, 140 g ai/ha, visual score after 14 days (0 no injury, 100 complete kill)
Method: as §1, §2, §3, §4

[5] = system: HELAN = sunflower (Helainthus annuus); test: General postemergence herbicidal activity, sunflower; assay type: in vivo; conditions: post-emergence, 336 h; post-emergent, 140 g ai/ha, visual score after 14 days (0 no injury, 100 complete kill)
Method: as §1, §2, §3, §4

[6] = system: ABUTH = velvetleaf (Abutilon theophrasti); test: General preemergence herbicidal activity, velvetleaf; assay type: in vivo; conditions: Abutilon theophrasti, pre-emergence, 480 h; pre-emergent, 280 g ai/ha, visual score after 20-22 days
Source text: as §5

**Q.** For `CCOc1c(Cl)ccc(-c2nc(N)c(Cl)c(C(=O)O)n2)c1F` [Compound 19, 6-Amino-5-chloro-2-(4-chloro-3-ethoxy-2-fluorophenyl)pyrimidine-4-carboxylic acid], which pest or weed control at 140 g/ha [1] is on record?
**A.** The pest or weed control at 140 g/ha was 90%.

**Q.** What about the pest or weed control at 280 g/ha [2] of the same compound?
**A.** The pest or weed control at 280 g/ha was 90%.

**Q.** And the melting point?
**A.** The melting point was 132 to 134 °C.

**Q.** And the pest or weed control at 280 g/ha [3]?
**A.** The pest or weed control at 280 g/ha was 75%.

**Q.** What about the pest or weed control at 140 g/ha [4] of the same compound?
**A.** Its pest or weed control at 140 g/ha is 95%.

**Q.** And the pest or weed control at 140 g/ha [5]?
**A.** Its pest or weed control at 140 g/ha is 95%.

**Q.** What about the pest or weed control at 280 g/ha [6] of the same compound?
**A.** The pest or weed control at 280 g/ha was 80%.
